According to patent publication US20190381014A1, “ISOQUINOLINONE COMPOUNDS AND USE THEREOF IN PREPARATION OF ANTIVIRAL DRUGS” (Ginkgo Pharma Co., Ltd., priority 2016, published 2019):
Where two headings read alike, the source gives them in different places.

Tested on: HBsAg
Assay: HBsAg inhibition in HepG2.2.15 culture supernatant (ELISA)
Type: cell-based, HBV
Conditions: read-out: Activity in HBsAg inhibition, EC50
Method: Test method: HepG2.2.15 cell line was seeded into 96-well plates at 1.5×10^4 cells/well. On the following day, the cells were treated with a three-fold serial dilution series of the compounds at eight concentration points, and 2 duplicate wells were determined in parallel. The final DMSO concentration in the culture solution was 0.5%. On the fifth day, the culture solution was replaced with fresh solution containing the compounds. On the eighth day, the culture supernatant was collected and the HBsAg in the culture supernatant was detected by ELISA. The percent inhibition was calculated with respect to the blank control.

[1] = Hepatitis B virus, HepG2.2.15, 192 h
[2] = HepG2.2.15 cells, supernatant on day 8, ELISA

With `COCC(C)(C)C1Cc2cc(O[C@H]3C[C@H](OC)C3)c(OC)cc2-c2cc(=O)c(C(=O)O)cn21` (mixture of isomers) [Compound I-53-rac, 10-methoxy-6-(1-methoxy-2-methylpropan-2-yl)-9-((1R,3R)-3-methoxycyclobutoxy)-2-oxo-6,7-dihydro-2H-pyrido[2,1-α]isoquinoline-3-carboxylic acid] as the compound, how does the EC50 [1] read?
The EC50 was 6.65 nM.

How did the EC50 [1] turn out when `COCC1(COc2cc3c(cc2OC)-c2cc(=O)c(C(=O)O)cn2C(C(C)(C)COC)C3)COC1` (racemic) [Compound I-55-rac, 10-methoxy-6-(1-methoxy-2-methylpropan-2-yl)-9-((3-(methoxymethyl)oxetan-3-yl)methoxy)-2-oxo-6,7-dihydro-2H-pyrido[2,1-α]isoquinoline-3-carboxylic acid] was run?
The EC50 was 7.23 nM.

`COCC(C)(C)C1Cc2cc(OCC3CC(OC)C3)c(OC)cc2-c2cc(=O)c(C(=O)O)cn21` (racemic) [Compound I-56-rac, 10-methoxy-6-(1-methoxy-2-methylpropan-2-yl)-9-((3-methoxycyclobutyl)methoxy)-2-oxo-6,7-dihydro-2H-pyrido[2,1-α]isoquinoline-3-carboxylic acid] was tested. Which EC50 [1] did it give?
The EC50 was 5.95 nM.

Which EC50 [1] does the source give for `COc1cc2c(cc1O[C@@H]1CCOC1)CC(C(C)C)n1cc(C(=O)O)c(=O)cc1-2` (mixture of isomers) [Compound I-2-rac, 6-isopropyl-10-methoxy-2-oxo-9-(((R)-tetrahydrofuran-3-yl)oxy)-6,7-dihydro-2H-pyrido[2,1-α]isoquinoline-3-carboxylic acid] here?
Its EC50 is 3.26 nM.

`COC1CC(COc2cc3c(cc2Cl)-c2cc(=O)c(C(=O)O)cn2C(C(C)C)C3)C1` (racemic) [Compound I-26-rac, 10-chloro-6-isopropyl-9-((3-methoxycyclobutyl)methoxy)-2-oxo-6,7-dihydro-2H-pyrido[2,1-α]isoquinoline-3-carboxylic acid] was tested. Which EC50 [1] did it give?
The EC50 was 7.56 nM.

`COc1cc2c(cc1O[C@H]1CCOC1)CC(C(C)C)n1cc(C(=O)O)c(=O)cc1-2` (mixture of isomers) [Compound I-1-rac, 6-isopropyl-10-methoxy-2-oxo-9-(((S)-tetrahydrofuran-3-yl)oxy)-6,7-dihydro-2H-pyrido[2,1-α]isoquinoline-3-carboxylic acid] was tested. Which EC50 [1] did it give?
The EC50 was 5.74 nM.

With `COc1cc2c(cc1OC1CCCC1)CC(C(C)C)n1cc(C(=O)O)c(=O)cc1-2` (racemic) [Compound I-10-rac, 9-(cyclopentyloxy)-6-isopropyl-10-methoxy-2-oxo-6,7-dihydro-2H-pyrido[2,1-α]isoquinoline-3-carboxylic acid] as the compound, how does the EC50 [1] read?
Its EC50 is 3.78 nM.

With `COc1cc2c(cc1OC1CCC1)C[C@@H](C(C)C)n1cc(C(=O)O)c(=O)cc1-2` [Compound I-20, (S)-9-cyclobutoxy-6-isopropyl-10-methoxy-2-oxo-6,7-dihydro-2H-pyrido[2,1-α]isoquinoline-3-carboxylic acid] as the compound, how does the EC50 [1] read?
The EC50 was 2.56 nM.

With `COCC1(COc2cc3c(cc2Cl)-c2cc(=O)c(C(=O)O)cn2C(C(C)C)C3)COC1` (racemic) [Compound I-25-rac, 10-chloro-6-isopropyl-9-((3-(methoxymethyl)oxetan-3-yl)methoxy)-2-oxo-6,7-dihydro-2H-pyrido[2,1-α]isoquinoline-3-carboxylic acid] as the compound, how does the EC50 [1] read?
The EC50 was 6.97 nM.

Which EC50 [1] does the source give for `COc1cc2c(cc1O[C@H]1C[C@H](OC)C1)CC(C(C)C)n1cc(C(=O)O)c(=O)cc1-2` (mixture of isomers) [Compound I-5-rac, 6-isopropyl-10-methoxy-9-((1R,3S)-3-methoxycyclobutoxy)-2-oxo-6,7-dihydro-2H-pyrido[2,1-α]isoquinoline-3-carboxylic acid] here?
Its EC50 is 3.56 nM.

How did the EC50 [1] turn out when `COCC(C)(C)C1Cc2cc(O[C@@H]3CCOC3)c(OC)cc2-c2cc(=O)c(C(=O)O)cn21` (mixture of isomers) [Compound I-52-rac, 10-methoxy-6-(1-methoxy-2-methylpropan-2-yl)-2-oxo-9-(((R)-tetrahydrofuran-3-yl)oxy)-6,7-dihydro-2H-pyrido[2,1-α]isoquinoline-3-carboxylic acid] was run?
Its EC50 is 7.57 nM.

`COCC1(COc2cc3c(cc2OC)-c2cc(=O)c(C(=O)O)cn2C(C(C)C)C3)COC1` (racemic) [Compound I-7-rac, 6-isopropyl-10-methoxy-9-((3-(methoxymethyl)oxetan-3-yl)methoxy)-2-oxo-6,7-dihydro-2H-pyrido[2,1-α]isoquinoline-3-carboxylic acid] was tested. Which EC50 [1] did it give?
The EC50 was 4.68 nM.

How did the EC50 [1] turn out when `COc1cc2c(cc1OC1COC1)CC(C(C)C)n1cc(C(=O)O)c(=O)cc1-2` (racemic) [Compound I-4-rac, 6-isopropyl-10-methoxy-9-(oxetan-3-yloxy)-2-oxo-6,7-dihydro-2H-pyrido[2,1-α]isoquinoline-3-carboxylic acid] was run?
Its EC50 is 3.62 nM.

`COCCCOc1cc2c(cc1OC)-c1cc(=O)c(C(=O)O)cn1C(C(C)C)C2` (racemic) [A-rac, reference compound] was tested. Which EC50 [1] did it give?
The EC50 was 8.21 nM.

With `COc1cc2c(cc1O[C@@H]1CCOC1)CC(C(C)(C)C)n1cc(C(=O)O)c(=O)cc1-2` (mixture of isomers) [Compound I-28-rac, 6-(tert-butyl)-10-methoxy-2-oxo-9-(((R)-tetrahydrofuran-3-yl)oxy)-6,7-dihydro-2H-pyrido[2,1-α]isoquinoline-3-carboxylic acid] as the compound, how does the EC50 [2] read?
Its EC50 is 5.78 nM.

How did the EC50 [1] turn out when `COc1cc2c(cc1OCCCC(C)=O)CC(C(C)C)n1cc(C(=O)O)c(=O)cc1-2` (racemic) [Compound I-9-rac, 6-isopropyl-10-methoxy-2-oxo-9-((4-oxopentyl)oxy)-6,7-dihydro-2H-pyrido[2,1-α]isoquinoline-3-carboxylic acid] was run?
Its EC50 is 3.71 nM.

`COCC1(COc2cc3c(cc2OC)-c2cc(=O)c(C(=O)O)cn2C(C(C)(C)C)C3)CC1` (racemic) [Compound I-30-rac, 6-(tert-butyl)-10-methoxy-9-((1-(methoxymethyl)cyclopropyl)methoxy)-2-oxo-6,7-dihydro-2H-pyrido[2,1-α]isoquinoline-3-carboxylic acid] was tested. Which EC50 [2] did it give?
Its EC50 is 6.74 nM.

Which EC50 [1] does the source give for `COc1cc2c(cc1OCC1CC(OC)C1)CC(C(C)C)n1cc(C(=O)O)c(=O)cc1-2` (racemic) [Compound I-8-rac, 6-isopropyl-10-methoxy-9-((3-methoxycyclobutyl)methoxy)-2-oxo-6,7-dihydro-2H-pyrido[2,1-α]isoquinoline-3-carboxylic acid] here?
The EC50 was 5.59 nM.

Which EC50 [1] does the source give for `COCC1(COc2cc3c(cc2OC)-c2cc(=O)c(C(=O)O)cn2C(C(C)(C)C)C3)COC1` (racemic) [Compound I-31-rac, 6-(tert-butyl)-10-methoxy-9-((3-(methoxymethyl)oxetan-3-yl)methoxy)-2-oxo-6,7-dihydro-2H-pyrido[2,1-α]isoquinoline-3-carboxylic acid] here?
The EC50 was 5.98 nM.

Which EC50 [1] does the source give for `COc1cc2c(cc1OCC1CC(OC)C1)CC(C(C)(C)C)n1cc(C(=O)O)c(=O)cc1-2` (racemic) [Compound I-32-rac, 6-(tert-butyl)-10-methoxy-9-((3-methoxycyclobutyl)methoxy)-2-oxo-6,7-dihydro-2H-pyrido[2,1-α]isoquinoline-3-carboxylic acid] here?
The EC50 was 7.31 nM.

With `CC(C)C1Cc2cc(O[C@@H]3CCOC3)c(Cl)cc2-c2cc(=O)c(C(=O)O)cn21` (mixture of isomers) [Compound I-22-rac, 10-chloro-6-isopropyl-2-oxo-9-(((R)-tetrahydrofuran-3-yl)oxy)-6,7-dihydro-2H-pyrido [2,1-α]isoquinoline-3-carboxylic acid] as the compound, how does the EC50 [1] read?
The EC50 was 5.46 nM.

With `COCC1(COc2cc3c(cc2OC)-c2cc(=O)c(C(=O)O)cn2C(C(C)C)C3)CC1` (racemic) [Compound I-6-rac, 6-isopropyl-10-methoxy-9-((1-(methoxymethyl)cyclopropyl)methoxy)-2-oxo-6,7-dihydro-2H-pyrido[2,1-α]isoquinoline-3-carboxylic acid] as the compound, how does the EC50 [1] read?
Its EC50 is 4.12 nM.

`CO[C@H]1C[C@H](Oc2cc3c(cc2Cl)-c2cc(=O)c(C(=O)O)cn2C(C(C)C)C3)C1` (mixture of isomers) [Compound I-23-rac, 10-chloro-6-isopropyl-9-((1R,3R)-3-methoxycyclobutoxy)-2-oxo-6,7-dihydro-2H-pyrido [2,1-α]isoquinoline-3-carboxylic acid] was tested. Which EC50 [1] did it give?
Its EC50 is 6.83 nM.

How did the EC50 [1] turn out when `COCCC#Cc1cc2c(cc1OC)-c1cc(=O)c(C(=O)O)cn1[C@H](C(C)C)C2` [Compound I-12, (S)-6-isopropyl-10-methoxy-9-(4-methoxybut-1-yn-1-yl)-2-oxo-6,7-dihydro-2H-pyrido [2,1-α]isoquinoline-3-carboxylic acid] was run?
Its EC50 is 3.83 nM.

How did the EC50 [1] turn out when `COc1cc2c(cc1O[C@H]1C[C@H](OC)C1)CC(C(C)(C)C)n1cc(C(=O)O)c(=O)cc1-2` (mixture of isomers) [Compound I-29-rac, 6-(tert-butyl)-10-methoxy-9-((1R,3R)-3-methoxycyclobutoxy)-2-oxo-6,7-dihydro-2H-pyrido[2,1-α]isoquinoline-3-carboxylic acid] was run?
Its EC50 is 6.45 nM.

How did the EC50 [2] turn out when `COc1cc2c(cc1OC1CCOCC1)CC(C(C)C)n1cc(C(=O)O)c(=O)cc1-2` (racemic) [Compound I-3-rac, 6-isopropyl-10-methoxy-2-oxo-9-((tetrahydro-2H-pyran-4-yl)oxy)-6,7-dihydro-2H-pyrido[2,1-α]isoquinoline-3-carboxylic acid] was run?
The EC50 was 7.04 nM.

`COc1cc2c(cc1C#CC1CC1)CC(C(C)C)n1cc(C(=O)O)c(=O)cc1-2` (racemic) [Compound I-11-rac, 9-(cyclopropylethynyl)-6-isopropyl-10-methoxy-2-oxo-6,7-dihydro-2H-pyrido[2,1-α]isoquinoline-3-carboxylic acid] was tested. Which EC50 [1] did it give?
Its EC50 is 2.61 nM.

`COc1cc2c(cc1O[C@H]1C[C@@H](OC)C1)C[C@@H](C(C)C)n1cc(C(=O)O)c(=O)cc1-2` [Compound I-19, (S)-6-isopropyl-10-methoxy-9-((1 s, 3R)-3-methoxycyclobutoxy)-2-oxo-6,7-dihydro-2H-pyrido[2,1-α]isoquinoline-3-carboxylic acid] was tested. Which EC50 [1] did it give?
Its EC50 is 2.89 nM.

With `COCC1(COc2cc3c(cc2Cl)-c2cc(=O)c(C(=O)O)cn2C(C(C)C)C3)CC1` (racemic) [Compound I-24-rac, 10-chloro-6-isopropyl-9-((1-(methoxymethyl)cyclopropyl)methoxy)-2-oxo-6,7-dihydro-2H-pyrido[2,1-α]isoquinoline-3-carboxylic acid] as the compound, how does the EC50 [2] read?
Its EC50 is 5.78 nM.
